Measured values as given in patent US9938261B2, “Heterocyclic compounds and methods of use thereof” (AMBIT BIOSCIENCES CORPORATION, priority 2011, dated 2018).

Tests used:
[1] = target: T1, FLT3 (Homo sapiens, UniProt P36888); experiment: Competition binding assay, FLT3 Kd
T1 construct: made in house
T1 sequence (P36888 27-993): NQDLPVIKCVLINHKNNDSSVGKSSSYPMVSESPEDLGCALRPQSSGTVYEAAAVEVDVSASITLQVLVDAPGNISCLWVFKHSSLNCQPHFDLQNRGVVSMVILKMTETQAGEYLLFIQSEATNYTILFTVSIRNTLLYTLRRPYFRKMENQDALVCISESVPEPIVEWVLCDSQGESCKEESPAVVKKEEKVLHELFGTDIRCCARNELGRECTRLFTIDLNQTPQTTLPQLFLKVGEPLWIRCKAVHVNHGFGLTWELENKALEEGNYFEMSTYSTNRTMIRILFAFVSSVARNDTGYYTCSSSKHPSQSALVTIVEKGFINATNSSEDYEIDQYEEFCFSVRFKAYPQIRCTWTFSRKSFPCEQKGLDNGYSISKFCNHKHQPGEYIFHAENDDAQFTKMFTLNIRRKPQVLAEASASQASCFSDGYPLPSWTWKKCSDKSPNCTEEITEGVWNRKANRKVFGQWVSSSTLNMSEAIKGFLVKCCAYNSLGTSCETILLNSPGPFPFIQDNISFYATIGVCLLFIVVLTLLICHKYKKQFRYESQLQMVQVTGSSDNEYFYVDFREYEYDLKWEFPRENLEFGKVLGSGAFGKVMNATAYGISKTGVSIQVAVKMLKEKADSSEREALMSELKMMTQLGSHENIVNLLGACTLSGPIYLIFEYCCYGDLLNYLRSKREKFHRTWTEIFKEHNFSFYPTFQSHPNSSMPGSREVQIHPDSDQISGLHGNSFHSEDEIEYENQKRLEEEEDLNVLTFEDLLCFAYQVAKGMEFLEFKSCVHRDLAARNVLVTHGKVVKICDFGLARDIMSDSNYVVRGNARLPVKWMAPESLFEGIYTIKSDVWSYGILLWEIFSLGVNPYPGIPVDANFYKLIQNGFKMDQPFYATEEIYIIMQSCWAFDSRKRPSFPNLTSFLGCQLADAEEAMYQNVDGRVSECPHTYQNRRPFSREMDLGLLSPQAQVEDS
How it was run: (§1)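 Read-out is quantitative PCR of kinase recovered from affinity beads after competition with test compound. Binding reached equilibrium over 1 hour at room temperature; Kd values come from eleven-point threefold serial dilutions.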

[2] = target: CSF1R (Homo sapiens, UniProt P07333); experiment: Competition binding assay, CSF1R Kd; parameters: made in house
How it was run: as §1

[3] = target: kinase panel containing either 386 or 392 distinct kinases; experiment: Kinase selectivity score S10 from competition binding panel; settings: compounds at 10 μM; 386 or 392 distinct kinases
Protocol: Competition binding assays used herein were developed, validated and performed as described in Fabian et al., Nature Biotechnology 2005, 23, 329-336. Kinases were produced as fusions to T7 phage (See, Fabian et al. or WO04/015142) or alternatively, the kinases were expressed in HEK-293 cells and subsequently tagged with DNA for PCR detection (See, WO08/005310). For the binding assays, streptavidin-coated magnetic beads were treated with biotinylated affinity ligands for 30 min at room temperature to generate affinity resins. The liganded beads were blocked with excess biotin and washed with blocking buffer (SeaBlock (Pierce), 1% BSA, 0.05% Tween 20, 1 mM DTT) to remove unbound ligand and to reduce non-specific binding. Binding reactions were assembled by combining kinase, liganded affinity beads, and test compounds in 1× binding buffer (20% SeaBlock, 0.17×PBS, 0.05% Tween 20, 6 mM DTT). Test compounds were prepared as 100× stocks in DMSO and diluted into the aqueous environment. Kds were determined using an eleven point threefold serial dilutions. DMSO or control compounds were was added to control assays lacking a test compound. Primary screen assays were performed in polypropylene 384-well plates in a final volume of 20-40 μL, while Kd determinations were performed in polystyrene 96-well plates in a final volume of 135 μL. The assay plates were incubated at room temperature with shaking for 1 hour to allow the binding reactions to reach equilibrium, and the affinity beads were washed extensively with wash buffer (1×PBS, 0.05% Tween 20) to remove unbound protein. The beads were then resuspended in elution buffer (1×PBS, 0.05% Tween […] non-biotinylated affinity ligand) and incubated at room temperature with shaking for 30 min. The kinase concentration in the eluates was measured by quantitative PCR.
A selectivity score (S10) is a quantitative measure of selectivity of a compound against a panel of kinases. An S10 was calculated for a compound by dividing the number of kinases found to have a percent of control (DMSO) less than 10 by the total number of distinct kinases tested (excluding mutant variants). Percent of control (POC) is calculated by subtracting the signal of the control compound (POC=0) from the signal of the test compound and dividing the outcome by the signal of DMSO (POC=100) minus the signal of the control compound. For the compounds disclosed herein, S10 scores were obtained by testing the compounds at 10 μM concentration in a kinase panel containing either 386 or 392 distinct kinases.

[4] = target: T2, KIT (Homo sapiens, UniProt P10721); experiment: Competition binding assay, KIT Kd
T2 construct: made in house
How it was run: as §1

[5] = tested on: M-NFS-60 cells; experiment: M-NFS-60 cell proliferation assay (Alamar Blue); format: cell-based, mouse; settings: Mus musculus; 72 hours incubation, M-CSF 20 ng/mL; read-out: CSF1R M-NFS-60 CTB:IC50
How it was run: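 Alamar Blue reduction (3 h; 560/590 nm) measured viability after 72 h, 37 °C treatment with nine half-log compound concentrations at 0.5% DMSO. Cells: M-CSF-dependent (20 ng/mL) murine M-NFS-60 in RPMI plus 10% FBS. IC50s, averaged from duplicates, reflect half-maximal inhibition of proliferation relative to control.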

CSF1R, sequence (P07333 20-972): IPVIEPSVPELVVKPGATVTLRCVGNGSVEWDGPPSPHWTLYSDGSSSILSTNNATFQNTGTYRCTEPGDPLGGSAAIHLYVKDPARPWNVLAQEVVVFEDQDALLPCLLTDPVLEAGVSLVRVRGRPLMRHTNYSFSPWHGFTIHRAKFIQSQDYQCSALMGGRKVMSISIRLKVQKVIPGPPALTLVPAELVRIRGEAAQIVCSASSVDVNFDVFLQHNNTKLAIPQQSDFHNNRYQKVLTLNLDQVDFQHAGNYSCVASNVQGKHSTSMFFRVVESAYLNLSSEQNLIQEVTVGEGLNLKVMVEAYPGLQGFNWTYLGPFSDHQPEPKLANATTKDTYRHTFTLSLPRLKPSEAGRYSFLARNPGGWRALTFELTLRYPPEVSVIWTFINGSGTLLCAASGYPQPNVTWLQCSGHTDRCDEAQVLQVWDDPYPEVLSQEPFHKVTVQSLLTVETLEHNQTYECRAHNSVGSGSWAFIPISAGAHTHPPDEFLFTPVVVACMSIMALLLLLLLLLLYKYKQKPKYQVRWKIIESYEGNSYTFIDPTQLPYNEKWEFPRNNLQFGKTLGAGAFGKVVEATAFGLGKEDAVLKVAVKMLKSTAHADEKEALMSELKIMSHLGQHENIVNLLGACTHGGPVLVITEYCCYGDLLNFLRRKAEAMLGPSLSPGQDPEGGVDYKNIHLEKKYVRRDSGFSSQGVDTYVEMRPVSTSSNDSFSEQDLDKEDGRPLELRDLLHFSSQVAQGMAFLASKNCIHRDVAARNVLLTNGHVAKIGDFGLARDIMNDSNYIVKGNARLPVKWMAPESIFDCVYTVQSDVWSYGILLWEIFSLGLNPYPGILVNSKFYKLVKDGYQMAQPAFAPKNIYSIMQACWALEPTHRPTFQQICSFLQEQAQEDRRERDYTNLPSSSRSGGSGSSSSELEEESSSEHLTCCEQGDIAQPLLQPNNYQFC
T2 sequence (P10721 26-976): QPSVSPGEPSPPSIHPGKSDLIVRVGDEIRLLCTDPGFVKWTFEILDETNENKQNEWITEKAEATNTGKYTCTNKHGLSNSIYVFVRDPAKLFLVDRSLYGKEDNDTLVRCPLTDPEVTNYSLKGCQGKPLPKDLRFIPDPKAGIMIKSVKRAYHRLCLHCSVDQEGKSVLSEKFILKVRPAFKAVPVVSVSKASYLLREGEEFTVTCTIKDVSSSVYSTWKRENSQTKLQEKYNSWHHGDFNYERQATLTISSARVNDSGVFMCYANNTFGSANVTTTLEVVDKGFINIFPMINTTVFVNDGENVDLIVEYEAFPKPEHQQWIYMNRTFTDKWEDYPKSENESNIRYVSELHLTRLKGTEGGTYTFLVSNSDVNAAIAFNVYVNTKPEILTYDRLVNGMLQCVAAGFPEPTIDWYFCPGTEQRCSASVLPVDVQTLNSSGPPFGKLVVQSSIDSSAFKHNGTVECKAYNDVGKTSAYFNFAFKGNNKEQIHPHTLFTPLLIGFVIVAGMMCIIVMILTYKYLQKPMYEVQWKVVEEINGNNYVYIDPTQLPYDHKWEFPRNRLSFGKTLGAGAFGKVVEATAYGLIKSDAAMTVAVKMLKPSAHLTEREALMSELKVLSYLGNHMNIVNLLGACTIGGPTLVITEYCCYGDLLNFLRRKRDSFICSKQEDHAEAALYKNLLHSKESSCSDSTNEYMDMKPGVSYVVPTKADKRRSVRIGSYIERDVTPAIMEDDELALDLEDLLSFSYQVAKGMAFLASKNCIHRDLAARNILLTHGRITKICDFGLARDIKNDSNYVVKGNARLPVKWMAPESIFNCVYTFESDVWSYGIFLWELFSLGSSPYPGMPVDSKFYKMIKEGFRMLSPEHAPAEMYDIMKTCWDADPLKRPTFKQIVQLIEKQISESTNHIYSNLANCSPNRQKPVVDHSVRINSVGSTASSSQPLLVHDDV

Structure (SMILES) | Kd [1] [µM] | Kd [2] [µM] | Kinase specificity S(10) [3] | Kd [4] [µM] | IC50 [5] [µM]
COc1cc2c(cc1C#N)ncn2Cc1ccc2nc(N[C@@H]3CCCC[C@H]3O)sc2c1 [Example 65, 1-((2-(((1R,2R)-2-hydroxycyclohexyl)amino)benzo[d]thiazol-6-yl)methyl)-6-methoxy-1H-benzo[d]imidazole-5-carbonitrile] | 1 to 5 | 0.005 to 0.02 | B (0.01<B≤0.02) | 0.5 to 2 | 0.05 to 0.4
OC[C@@H]1CCCC[C@H]1Nc1nc2ccc(Cn3cnc4cccnc43)cc2s1 [Example 66, ((1R,2R)-2-((6-((3H-imidazo[4,5-b]pyridin-3-yl)methyl)benzo[d]thiazol-2-yl)amino)cyclohexyl)methanol] | > 5 | 0.005 to 0.02 | A (A≤0.01) | 0.5 to 2 | 0.4 to 1.5
CC(=O)c1cnc2c(c1)ncn2Cc1ccc2nc(N[C@@H]3CCCC[C@H]3O)sc2c1 [Example 73, 1-(3-((2-(((1R,2R)-2-hydroxycyclohexyl)amino)benzo[d]thiazol-6-yl)methyl)-3H-imidazo[4,5-b]pyridin-6-yl)ethanone] | 1 to 5 | 0.005 to 0.02 | A (A≤0.01) | 0.1 to 0.5 | 0.05 to 0.4
CS(=O)(=O)c1cnc2c(c1)ncn2Cc1ccc2nc(N[C@@H]3CCCC[C@H]3O)sc2c1 [Example 74, (1R,2R)-2-((6-((6-(methylsulfonyl)-3H-imidazo[4,5-b]pyridin-3-yl)methyl)benzo[d]thiazol-2-yl)amino)cyclohexanol] | ≤ 0.2 | 0.005 to 0.02 | B (0.01<B≤0.02) | 0.1 to 0.5 | 0.05 to 0.4
OC1(CNc2nc3ccc(Cn4cnc5cccnc54)cc3s2)CCCCC1 [Example 75, 1-(((6-((3H-imidazo[4,5-b]pyridin-3-yl)methyl)benzo[d]thiazol-2-yl)amino)methyl)cyclohexanol] | 1 to 5 | 0.005 to 0.02 | C (C>0.02) | ≤ 0.1 | 0.05 to 0.4
OCC1(CNc2nc3ccc(Cn4cnc5cccnc54)cc3s2)CCCCC1 [Example 76, (1-(((6-((3H-imidazo[4,5-b]pyridin-3-yl)methyl)benzo[d]thiazol-2-yl)amino)methyl)cyclohexyl)methanol] | ≤ 0.2 | ≤ 0.005 | C (C>0.02) | ≤ 0.1 | 0.05 to 0.4
Cn1cc(-c2cn(Cc3ccc4nc(N[C@@H]5CCCC[C@H]5O)oc4c3)cn2)cn1 [Example 77, (1R,2R)-2-((6-((4-(1-methyl-1H-pyrazol-4-yl)-1H-imidazol-1-yl)methyl)benzo[d]oxazol-2-yl)amino)cyclohexanol] | 1 to 5 | 0.005 to 0.02 | A (A≤0.01) | 0.5 to 2 | 0.4 to 1.5
O[C@@H]1Cc2ccccc2[C@H]1Nc1nc2ccc(Cn3cnc4ccc(Br)nc43)cc2s1 [Example 80, (1R,2R)-1-((6-((5-bromo-3H-imidazo[4,5-b]pyridin-3-yl)methyl)benzo[d]thiazol-2-yl)amino)-2,3-dihydro-1H-inden-2-ol] | 0.2 to 1 | 0.005 to 0.02 | B (0.01<B≤0.02) | ≤ 0.1 | ≤ 0.05
O=C(O)c1cnc2c(c1)ncn2Cc1ccc2nc(N[C@@H]3CCCC[C@H]3O)sc2c1 [Example 81, 3-((2-(((1R,2R)-2-hydroxycyclohexyl)amino)benzo[d]thiazol-6-yl)methyl)-3H-imidazo[4,5-b]pyridine-6-carboxylic acid] | 1 to 5 | 0.02 to 0.05 | B (0.01<B≤0.02) | 0.1 to 0.5 | > 1.5
O[C@@H]1CCCC[C@H]1Nc1nc2ccc(Cn3cnc4cc(CN5CCOCC5)cnc43)cc2s1 [Example 82, (1R,2R)-2-((6-((6-(morpholinomethyl)-3H-imidazo[4,5-b]pyridin-3-yl)methyl)benzo[d]thiazol-2-yl)amino)cyclohexanol] | 1 to 5 | 0.005 to 0.02 | A (A≤0.01) | 0.5 to 2 | 0.4 to 1.5
OCc1cnc2c(c1)ncn2Cc1ccc2nc(N[C@@H]3CCCC[C@H]3O)sc2c1 [Example 84, (1R,2R)-2-((6-((6-(hydroxymethyl)-3H-imidazo[4,5-b]pyridin-3-yl)methyl)benzo[d]thiazol-2-yl)amino)cyclohexanol] | 1 to 5 | 0.005 to 0.02 | A (A≤0.01) | 0.1 to 0.5 | 0.05 to 0.4
CSc1cnc2c(c1)ncn2Cc1ccc2nc(N[C@@H]3CCCC[C@H]3O)sc2c1 [Example 85, (1R,2R)-2-((6-((6-(methylthio)-3H-imidazo[4,5-b]pyridin-3-yl)methyl)benzo[d]thiazol-2-yl)amino)cyclohexanol] | 0.2 to 1 | ≤ 0.005 | B (0.01<B≤0.02) | ≤ 0.1 | ≤ 0.05
CSCc1cnc2c(c1)ncn2Cc1ccc2nc(N[C@@H]3CCCC[C@H]3O)sc2c1 [Example 86, (1R,2R)-2-((6-((6-((methylthio)methyl)-3H-imidazo[4,5-b]pyridin-3-yl)methyl)benzo[d]thiazol-2-yl)amino)cyclohexanol] | 0.2 to 1 | 0.005 to 0.02 | C (C>0.02) | ≤ 0.1 | 0.05 to 0.4
N#Cc1ccc2ncn(Cc3ccc4nc(N[C@@H]5CCCC[C@H]5O)sc4c3)c2n1 [Example 87, 3-((2-(((1R,2R)-2-hydroxycyclohexyl)amino)benzo[d]thiazol-6-yl)methyl)-3H-imidazo[4,5-b]pyridine-5-carbonitrile] | 0.2 to 1 | ≤ 0.005 | B (0.01<B≤0.02) | ≤ 0.1 | ≤ 0.05
C#Cc1cnc2c(c1)ncn2Cc1ccc2nc(N[C@@H]3CCCC[C@H]3O)sc2c1 [Example 96, (1R,2R)-2-((6-((6-ethynyl-3H-imidazo[4,5-b]pyridin-3-yl)methyl)benzo[d]thiazol-2-yl)amino)cyclohexanol] | ≤ 0.2 | 0.005 to 0.02 | C (C>0.02) | ≤ 0.1 | ≤ 0.05
